The supplement of paper PMC11579375

Assays:
Test in all cases: area under the viability dose-response curve (AUC) (AUC (arbitrary units, max 500 = no viability loss)); higher = less sensitive (higher viability)
Conditions in all cases: exposure time: 120 h; concentration range: 0.1 nM - 10 µM, 6 doses
17E = test system: 17E (embryonal-type hepatoblastoma organoid)
Protocol: (§1)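 Patient-derived hepatoblastoma tumor organoids (about 50 organoids per well, 384-well plates, medium with 5% BME) were treated with the PMC pediatric cancer drug library. Each drug was tested in duplicate at 6 concentrations (0.1 nM to 10 µM, 10-fold steps).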

135F2 = test system: 135F2 (fetal-II hepatoblastoma organoid with high liver markers)
Protocol: as §1

3E = test system: 3E (embryonal-type hepatoblastoma organoid)
Protocol: as §1

27F1 = test system: 27F1 (fetal-I hepatoblastoma organoid with intermediate liver markers)
Protocol: as §1

13E = test system: 13E (embryonal-type hepatoblastoma organoid)
Protocol: as §1

22E = test system: 22E (embryonal-type hepatoblastoma organoid)
Protocol: as §1

96F1 = test system: 96F1 (fetal-I hepatoblastoma organoid with intermediate liver markers)
Protocol: as §1

13F2 = test system: 13F2 (fetal-II hepatoblastoma organoid with high liver markers)
Protocol: as §1

17F1 = test system: 17F1 (fetal-I hepatoblastoma organoid with intermediate liver markers)
Protocol: as §1

8F1 = test system: 8F1 (fetal-I hepatoblastoma organoid with intermediate liver markers)
Protocol: as §1

10F2 = test system: 10F2 (fetal-II hepatoblastoma organoid with high liver markers)
Protocol: as §1

Row | Compound | area under the viability dose-response curve (17E) | area under the viability dose-response curve (135F2) | area under the viability dose-response curve (3E) | area under the viability dose-response curve (27F1) | area under the viability dose-response curve (13E) | area under the viability dose-response curve (22E) | area under the viability dose-response curve (96F1) | area under the viability dose-response curve (13F2) | area under the viability dose-response curve (17F1) | area under the viability dose-response curve (8F1) | area under the viability dose-response curve (10F2)
1 | CCc1cc2c(cc1N1CCC(N3CCOCC3)CC1)C(C)(C)c1[nH]c3cc(C#N)ccc3c1C2=O [Alectinib] | > 500 | 499 | 452 | > 500 | 498 | 479 | > 500 | 473 | 499 | 496 | > 500
2 | CO[C@@H]1[C@H](N(C)C(=O)c2ccccc2)C[C@H]2O[C@]1(C)n1c3ccccc3c3c4c(c5c6ccccc6n2c5c31)C(=O)NC4 [Midostaurin] | 364 | 365 | 338 | > 500 | 427 | 417 | 431 | 335 | 442 | 454 | 372
3 | COc1cc2nccc(Oc3ccc(NC(=O)C4(C(=O)Nc5ccc(F)cc5)CC4)cc3)c2cc1OC [Cabozantinib] | 439 | 491 | 457 | > 500 | 478 | 445 | 475 | 442 | > 500 | 489 | 488
4 | O=c1nc(N2CCOCC2)oc2c(-c3cccc4c3sc3ccccc34)cccc12 [LTURM34] | 487 | 467 | 486 | > 500 | 473 | 433 | 497 | 484 | 490 | 489 | 393
5 | NS(=O)(=O)OC[C@@H]1C[C@@H](n2ccc3c(N[C@H]4CCc5ccccc54)ncnc32)C[C@@H]1O [Pevonedistat] | 383 | 342 | 448 | 333 | 451 | 470 | 381 | 329 | 400 | 445 | 425
6 | CC[C@@]1(O)C(=O)OCc2c1cc1n(c2=O)Cc2cc3c(CN(C)C)c(O)ccc3nc2-1 [Topotecan] | 269 | 291 | 257 | 348 | 328 | 416 | 284 | 239 | 319 | 372 | 311
